pIC50: −log10 of the molar value. Values joined by “and” are separate entries in the source; they are usually repeats but may differ in a detail not shown here. Equal values may be shown once.
Tested on: 885512-296-R-J2-PDC complex spheroid viability
Assay: Anticancer human tumor 885512-296-R-J2-PDC patient-derived breast carcinoma cell line growth inhibition [GQUAD]
Conditions: for viability, T/C: stronger effect = lower value; for pIC50: curve of compound
Excerpt: DNA G-quadruplex Stabilizer Agents in Combinations in Complex Spheroids
A high-throughput screen of multi-cell type tumor spheroids was designed to identify active combinations of DNA G-quadruplex stabilizer agents and targeted small molecules. Complex spheroids include a stromal component modeled by human endothelial cells (HUVEC) and fibroblasts modeled by human mesenchymal stem cells (MSCs). The concentration ranges selected for each drug and investigational agent were based upon clinically achievable concentrations if the clinical Cmax of the agent was known.
Compounds. The drugs and investigational agents: pidnarulex (CX-5461; NSC782164), APTO-253 (NSC789042), BRACO-19 (NSC847499), peposertib (NSC802822), ceralasertib (NSC780249), elimusertib (NSC800525), camonsertib (NSC841442), AZD-1390 (NSC803789), olaparib (NSC753686), talazoparib (NSC767125), ART-558 (NSC835418), sotorasib (NSC818433), MRTX-1133 (NSC836407), SN-38 (NSC673596), topotecan (NSC609699), etoposide (NSC141540), doxorubicin (NSC123127), gemcitabine (NSC613327), 5-fluorouracil (NSC19893), paclitaxel (NSC125973), vemurafenib (NSC761431), panobinostat (NSC761190), R-306465 (JNJ-16241199; NSC773264), adavosertib (NSC754352), TP-3654 (NSC805149), carboplatin (NSC241240), KSQ-4279 (NSC840948), and staurosporine (NSC755774) were obtained from the National Cancer Institute (NCI) Developmental Therapeutics Program Chemical Repository (34). The FDA-approved anticancer drug set is available from the NCI Developmental Therapeutics Program. […] The stock solutions were prepared in dimethyl sulfoxide (DMSO, Sigma-Aldrich, St. Louis, MO, cat. D2650) at 800-fold the tested concentration and stored at -70 degrees C prior to their use. All drugs and investigational agents were tested over a range starting from a high concentration at or near the clinical Cmax and decreasing in half-log increments. If the clinical Cmax for an agent had not been determined, the highest concentration tested was 10 microM.
2.3 Cell Culture. All cells were maintained in an incubator at 37 degrees C and 5% CO2 with 95% humidity. The PDC lines were cultured according to standard operating procedures established by the NCI PDMR. All PDCs were thawed and cultured in Matrigel-coated flasks prepared with a working solution of 1X Ham's F-12 nutrient mix, without supplementation (Invitrogen, cat. 11765054), 100 U/mL penicillin-streptomycin (Invitrogen, cat. 15140122), and 2.5% Matrigel (Corning Inc., cat. 354248) for the first three passages. The 857933-349-R-J2-PDC line was cultured in 6C/Colon 1B media, which includes advanced DMEM/F-12 (Thermo Fisher Scientific, cat. 12634028), 10 mM HEPES (Thermo Fisher Scientific, cat. 15630080), 1X GlutaMAX supplement (Thermo Fisher Scientific, cat. 35050061), 0.1 mg/mL primocin (InvivoGen, cat. ant-pm-2), 10% defined fetal bovine serum, heat inactivated (HyClone Laboratories Inc., cat. SH30070.03HI), 50% L-WRN conditioned media (ATCC, cat. CRL-3276), 1.25 mM N-Acetyl-L-cysteine (Sigma-Aldrich, cat. A9165), 10 mM nicotinamide (Sigma-Aldrich, cat. N0636), 1X B-27 supplement (Thermo Fisher Scientific, cat. 17504044), 1X N-2 supplement (Thermo Fisher Scientific, cat. 17502048), 10 microM Y-27632 dihydrochloride (Tocris Bioscience, cat. 1254), and 50 ng/mL human EGF recombinant protein (Thermo Fisher Scientific, cat. PHG0311). The 485176-168-R4-J1-PDC line was cultured in Panc media, which includes all 6C/Colon 1B media components plus 100 ng/mL human FGF-10 (Thermo Fisher Scientific, cat. 100-26), 500 nM SB-431542 (Selleckchem, cat. S1067), and gastrin (Tocris, cat. 3006).
[…]
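Also: spheroids exposed to the compounds for one week.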
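For viability, T/C in this document: percent of tumor spheroid viability relative to DMSO vehicle control wells.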

| SMILES | viability, T/C (compound 0.0316 µM) | viability, T/C (compound 0.1 µM) | viability, T/C (compound 0.316 µM) | viability, T/C (compound 1 µM) | viability, T/C (compound 3.16 µM) | viability, T/C (compound 10 µM) | pIC50 | viability, T/C (compound 0.000999 µM) | viability, T/C (compound 0.00316 µM) | viability, T/C (compound 0.00999 µM) | viability, T/C (compound 0.0999 µM) | IC50 (compound alone, run of 04/22/2024) |
| --- | --- | --- | --- | --- | --- | --- | --- | --- | --- | --- | --- | --- |
| CC1COCCN1c1cc(C2(O)CC3CCC(C2)O3)c2cnn(-c3ccn[nH]3)c2n1 (centres undefined) | 35.6% and 35.7% and 28.2% | 5.4% and 6.31% and 4.72% | 3.47% and 3.66% and 2.97% | 4.37% and 4.46% and 4.22% | 5.77% and 6.96% and 7.53% | 7.08% and 8.11% and 7.48% | > 7.50 |  |  |  |  |  |
| CC1COCCN1c1cc(C2(S(C)(=N)=O)CC2)nc(-c2ccnc3[nH]ccc23)n1 (centres undefined) | 103% (2×) and 99.8% | 106% and 90.2% and 88.9% | 98.9% and 83.5% and 84.4% | 43% and 40% and 30% | 5.74% and 6.03% and 4.64% | 4.07% and 4.55% and 4.14% | 6.06 and 6.12 and 6.19 |  |  |  |  |  |
| CCCS(=O)(=O)Nc1ccc(F)c(C(=O)c2c[nH]c3ncc(-c4ccc(Cl)cc4)cc23)c1F | 115% (2×) and 92.5% | 103% and 94.5% and 95.3% | 68.9% and 106% and 108% | 8.17% and 109% and 104% |  |  |  |  |  |  |  |  |
| CC[C@@]1(O)C(=O)OCc2c1cc1n(c2=O)Cc2cc3c(CN(C)C)c(O)ccc3nc2-1 | 47.7% and 30.2% and 36.7% |  | 4.95% and 2.59% and 5.86% |  |  |  | 7.56 and 7.67 and 7.62 | 116% and 100% and 107% | 93.6% and 104% and 96.9% | 84% and 86.7% and 91.6% | 11.4% and 8.49% and 7.63% |  |
| CCc1c2c(nc3ccc(O)cc13)-c1cc3c(c(=O)n1C2)COC(=O)[C@]3(O)CC | 3.41% and 2.61% and 2.84% |  | 1.84% and 1.42% and 1.47% |  |  |  | > 9.00 | 25.5% and 14.5% and 17.8% | 8.48% and 8.19% and 8.06% | 5.42% and 2.67% and 4.25% | 2% and 2.11% and 1.97% |  |
| CN(C)c1ccc(Nc2c3ccc(NC(=O)CCN4CCCC4)cc3nc3cc(NC(=O)CCN4CCCC4)ccc23)cc1 | 100% [middle of 12 runs] | 102% [middle of 12 runs] | 105% [middle of 12 runs] | 102% [middle of 12 runs] | 103% [middle of 12 runs] | 21.1% [middle of 12 runs] |  |  |  |  |  | 6.43 µM [middle of 11 runs] |
